Experimental data taken from patent US20070099877A1, “N-aryl-thienopyrimidin-4-amines and analogs as activators of caspases and inducers of apoptosis and the use thereof” (Cytovia, Inc., priority 2005, published 2007).
Read-outs that look alike come from different tables or passages of the source.

Assays:
Type in all cases: cell-based
[1] = tested on: human hepatocellular carcinoma cell line SNU398; experiment: Caspase cascade activation in SNU398 cells; conditions: Homo sapiens, SNU-398, 48 h, read-out: Caspase activation Potency EC50 SNU398 (48 h)
Procedure: (§1) Human breast cancer cell line T-47D, human lung cancer cell line H1299, human hepatocellular carcinoma cell line SNU398, human colon carcinoma cell line HCT116 were grown according to media component mixtures designated by American Type Culture Collection+10% FCS (Invitrogen Corporation), in a 5% CO2-95% humidity incubator at 37° C. T-47D and H1299 cells were maintained at a cell density between 50 and 80% confluency at a cell density of 0.1 to 0.6×10^6 cells/mL. Cells were harvested at 600×g and resuspended at 0.65×10^6 cells/mL into appropriate media+10% FCS. An aliquot of 22.5 μL of cells was added to a well of a 384-well microtiter plate containing 2.5 μL of a 10% DMSO in RPMI-1640 media solution containing 0.16 to 100 μM of N-(2,5-dimethoxyphenyl)-2-methylthieno[3,2-d]pyrimidin-4-amine or other test compound (0.016 to 10 μM final). An aliquot of 22.5 μL of cells was added to a well of a 384-well microtiter plate containing 2.5 μL of a 10% DMSO in RPMI-1640 media solution without test compound as the control sample. The samples were mixed by agitation and then incubated at 37° C. for 24 h or 48 h in a 5% CO2-95% humidity incubator. After incubation, the samples were removed from the incubator and 25 μL of a solution containing 14 μM of N-(Ac-DEVD)-N′-ethoxycarbonyl-R110 (SEQ ID NO.:1) fluorogenic substrate (Cytovia, Inc.; WO99/18856), 20% sucrose (Sigma), 20 mM DTT (Sigma), 200 mM NaCl (Sigma), 40 mM Na PIPES buffer pH 7.2 (Sigma), and 500 μg/mL lysolecithin (Calbiochem) was added. The samples were mixed by agitation and incubated at room temperature. Using a fluorescent plate reader (Model SPECTRAfluor Plus, Tecan), an initial reading (T=0) was made approximately 1-2 min after addition of the substrate solution, employing excitation at 485 nm and emission at 530 nm, to determine the background fluorescence of the control sample. After the 3 h incubation, the samples were read for fluorescence as above (T=3 h).
(§2) The Relative Fluorescence Unit values (RFU) were used to calculate the sample readings as follows: RFU(T=3h)−Control RFU(T=O)=Net RFU(T=3h)
(§3) The activity of caspase cascade activation was determined by the ratio of the net RFU value for N-(2,5-dimethoxyphenyl)-2-methylthieno[3,2-d]pyrimidin-4-amine or other test compound to that of control samples. The EC50 (nM) was determined by a sigmoidal dose-response calculation (Prism 3.0, GraphPad Software Inc.).

[2] = tested on: human breast cancer cell line T-47D; experiment: Caspase cascade activation (DEVD-R110 fluorogenic substrate) in T-47D cells; conditions: Homo sapiens, T47D
Procedure: as §1, §2, §3

[3] = tested on: human colon carcinoma cell line HCT116; experiment: Caspase cascade activation in HCT116 cells; conditions: Homo sapiens, HCT-116, 48 h, read-out: Caspase activation Potency EC50 HCT116 (48 h)
Procedure: as §1, §2, §3

[4] = 48 h, T-47D cells, 48 h, read-out: Caspase activation Potency EC50 T-47D (48 h)
[5] = 24 h, T47D cells, 24 h, read-out: Caspase activation Potency EC50 T47D (24 h)

| SMILES | EC50 [1] [µM] | EC50 [2, 4] [µM] | EC50 [3] [µM] | EC50 [2, 5] [µM] |
| --- | --- | --- | --- | --- |
| COc1cc(Nc2ncnc3sc(C)cc23)cc(OC)c1 [Example 48, N-(3,5-Dimethoxyphenyl)-6-methylthieno[2,3-d]pyrimidin-4-amine] | > 10 | 1.99 | > 10 |  |
| COc1cc(Nc2ncnc3sc(-c4ccccc4)c(C)c23)cc(OC)c1 [Example 49, N-(3,5-Dimethoxyphenyl)-5-methyl-6-phenylthieno[2,3-d]pyrimidin-4-amine] | > 10 | > 10 | > 10 |  |
| COc1cc(Nc2nc(C)nc3scc(C)c23)cc(OC)c1 [Example 51, N-(3,5-Dimethoxyphenyl)-2,5-dimethylthieno[2,3-d]pyrimidin-4-amine] | 2.64 | 2.49 | 3.7 |  |
| COc1cc(Nc2ncnc3cc(I)sc23)cc(OC)c1 [Example 53, N-(3,5-Dimethoxyphenyl)-6-iodothieno[3,2-d]pyrimidin-4-amine] | 0.868 | 0.723 | 2.45 |  |
| COc1cc(Nc2nc(C)nc3sccc23)cc(OC)c1 [Example 55, N-(3,5-Dimethoxyphenyl)-2-methylthieno[2,3-d]pyrimidin-4-amine] | > 10 | 0.099 | > 10 | 0.112 |
| COc1cc(Nc2ncnc3ccsc23)cc(C(F)(F)F)c1 [Example 56, N-(5-Methoxy-3-trifluoromethylphenyl)thieno[3,2-d]pyrimidin-4-amine] | 1.03 | 1.84 | 2.61 |  |
| COc1cc(Nc2ncnc3ccsc23)cc([N+](=O)[O-])c1 [Example 59, N-(3-Methoxy-5-nitrophenyl)thieno[3,2-d]pyrimidin-4-amine] | 3.25 | > 10 | > 10 |  |
| CS(=O)(=O)c1cc(Nc2ncnc3ccsc23)cc(S(C)(=O)=O)c1 [Example 60, N-(3,5-Bis(methylsulfonyl)phenyl)thieno[3,2-d]pyrimidin-4-amine] | > 10 | > 10 | > 10 |  |
| COc1cc(Nc2nc(C)nc3ccsc23)cc(N(C)C)c1 [Example 63, N-(3-Dimethylamino-5-methoxyphenyl)-2-methylthieno[3,2-d]pyrimidin-4-amine] | 0.706 | 0.32 | 1.26 |  |

Further lines, results first:

| EC50 [1] [µM] | EC50 [2, 4] [µM] | EC50 [3] [µM] | EC50 [2, 5] [µM] | SMILES |
| --- | --- | --- | --- | --- |
| > 10 | 0.087 | > 10 |  | COc1cc(Nc2ncnc3sccc23)cc(OC)c1 [Example 45, N-(3,5-Dimethoxyphenyl)thieno[2,3-d]pyrimidin-4-amine] |
| > 10 | 1.52 | > 10 |  | COc1cc(Nc2ncnc3c(C)csc23)cc(OC)c1 [Example 46, N-(3,5-Dimethoxyphenyl)-7-methylthieno[3,2-d]pyrimidin-4-amine] |
| > 10 | > 10 | > 10 |  | COc1cc(Nc2ncnc3sc(C)c(C)c23)cc(OC)c1 [Example 47, N-(3,5-Dimethoxyphenyl)-5,6-dimethylthieno[2,3-d]pyrimidin-4-amine] |
| ≥ 10 | 4.36 | ≥ 10 |  | COc1cc(Nc2ncnc3scc(C)c23)cc(OC)c1 [Example 50, N-(3,5-Dimethoxyphenyl)-5-methylthieno[2,3-d]pyrimidin-4-amine] |
| 0.468 | 0.033 | 0.082 | 0.032 | COc1cc(Nc2nc(C)nc3cc(Br)sc23)cc(OC)c1 [Example 52, N-(3,5-Dimethoxyphenyl)-6-bromo-2-methylthieno[3,2-d]pyrimidin-4-amine] |
| > 10 | > 10 | > 10 |  | Cc1cc(C)cc(Nc2ncnc3ccsc23)c1 [Example 57, N-(3,5-Dimethylphenyl)thieno[3,2-d]pyrimidin-4-amine] |
| 0.168 | 0.565 | 0.347 | > 10 | COC(=O)c1cc(Nc2ncnc3ccsc23)cc(C(=O)OC)c1 [Example 58, Dimethyl 5-(thieno[3,2-d]pyrimidin-4-ylamino)benzene-1,3-dioate] |
